What all share (format): in vivo
One assay has as its system Phaedon cochleariae. Description: Phaedon cochleariae test (spray on cabbage leaves). The note with it: larvae. How it is done:
Solvent: 7 parts by weight of dimethylformamide
Emulsifier: 2 parts by weight of alkylaryl polyglycolether
(§1) To produce a suitable preparation of active compound, 1 part by weight of active compound is mixed with the stated amount of solvent and emulsifier, and the concentrate is diluted with emulsifier-containing water to the desired concentration.
Cabbage leaves (Brassica oleracea) are treated by being sprayed with the preparation of the active compound at the desired concentration and are infested with larvae of the mustard beetle (Phaedon cochleariae) as long as the leaves are still moist.
After the specified period of time, the mortality in % is determined. 100% means that all the beetle larvae have been killed; 0% means that none of the beetle larvae have been killed.

A further assay concerns Nilaparvata lugens. Description: Nilaparvata lugens test (spray on rice plants). The note with it: larvae. How it is done:
Solvent: 7 parts by weight of dimethylformamide Emulsifier: 2 parts by weight of alkylaryl polyglycolether
as §1
Rice plants (Oryza sativa) are treated by being sprayed with the preparation of the active compound at the desired concentration and are infested with larvae of the Brown plant hopper (Nilaparvata lugens) as long as the leaves are still moist.
After the specified period of time, the mortality in % is determined. 100% means that all the hopper larvae have been killed; 0% means that none of the hopper larvae have been killed.

The subject of assay [1] is Blumeria graminis f. sp. hordei. Description: Blumeria test (barley)/SAR 5d. The settings on record: 1000 ppm, inoculation 5 days after spraying, evaluated 7 days after inoculation. How it is done:
Solvent: 50 parts by weight of n,n-dimethylacetamid Emulsifier: 1 part by weight of alkylaryl polyglycol ether
To produce a suitable preparation of active compound, 1 part by weight of active compound or active compound combination is mixed with the stated amounts of solvent and emulsifier, and the concentrate is diluted with water to the desired concentration.
To test for systemic activated resistance, young plants are sprayed with the preparation of active compound or active compound combination at the stated rate of application. After the spray coating has dried on, the plants are placed in a greenhouse at a temperature of approximately 18° C. and a relative atmospheric humidity of approximately 80%.
5 days after spraying, the plants are dusted with spores of Blumeria graminis f. sp. hordei. The plants then remain in a greenhouse at a temperature of approximately 18° C. and a relative atmospheric humidity of approximately 80% to promote the development of mildew pustules.
The test is evaluated 7 days after the inoculation, 1. and 2. leaf separated. 0% means an efficacy with corresponds to that of the control while an efficacy of 100% means that no disease is observed.

Consider `N#C/N=C1\SCCN1Cc1ccc(Cl)nc1` [Thiacloprid, thiacloprid], for which the “Efficacy in % after 3 d (mortality)” value with Phaedon cochleariae (4 ppm) stood at 5%.
As for `O=[N+]([O-])NC1=NCCN1Cc1ccc(Cl)nc1` [Imidacloprid, imidacloprid], the “Efficacy in % after 3 d (mortality)” value in the assay on Nilaparvata lugens (0.8 ppm) is 0%.
For the compound `N#Cc1ccccc1NC(=O)c1snc(Cl)c1Cl` [Isotianil, 3,4-dichloro-N-(2-cyanophenyl)-5-isothiazolecarboxamide], the “Efficacy in % after 3 d (mortality)” value in the assay on Nilaparvata lugens (200 ppm) and in the assay on Phaedon cochleariae (200 ppm) was 0% throughout. Moreover, in the assay with Phaedon cochleariae (200 ppm), the “Efficacy in % after 6 d (mortality)” value is on record as 0%. For the same compound, the Efficacy in % in assay [1] (1st leaf) and in assay [1] (2nd leaf) was 44% throughout.
As for `CN/C(=N\[N+](=O)[O-])NCc1cnc(Cl)s1` [Clothianidin, clothianidin], the “Efficacy in % after 3 d (mortality)” value in the assay on Phaedon cochleariae (4 ppm) is 15%.
Consider `Cc1cc(C(F)(C(F)(F)F)C(F)(F)F)ccc1NC(=O)c1cccc(I)c1C(=O)NC(C)(C)CS(C)(=O)=O` [Flubendiamide, flubendiamide], for which the “Efficacy in % after 3 d (mortality)” value in the assay on Nilaparvata lugens (0.16 ppm), with Phaedon cochleariae (0.8 ppm) and in the assay with Phaedon cochleariae (4 ppm) was 0% each time. In addition, the “Efficacy in % after 6 d (mortality)” value in the assay on Phaedon cochleariae (4 ppm) is listed as 0%. Moreover, the Efficacy in % in assay [1] (1st leaf) and in assay [1] (2nd leaf) was 22% throughout.

For the origin of these results see US20100311580A1, “Active Compound Combinations” (Bayer CropScience AG, priority 2007, published 2010).
